According to paper PMC9405727, “A Setmelanotide-like Effect at MC4R Is Achieved by MC4R Dimer Separation” (Biomolecules, 2022):
Entries after “also recorded” stand apart in the source; their conditions may differ.

How the values were obtained:
HEK293 cells = experiment: GloSensor cAMP accumulation, isoproterenol internal control in transfected cells; type: cell-based, human
Procedure: Gs signaling was measured using cAMP assay GloSensor™, enabling real-time measurements of cAMP accumulation. HEK293 cells were transfected with either MC4R-WT or chimeric receptors. […] Non-PTX-treated cells received 10 µL MEM without supplements (Gibco Minimum Essential Media, Waltham, MA, USA) per well at the same time point. Bioluminescence was quantified using a Berthold Microplate Reader (Mithras LB940, Berthold Technologies GmbH and Co., Bad Wildbad, Germany). […] Cells stimulated with 1 µM isoproterenol served as an internal control. GloSensor™ results were expressed as relative luminescence units (RLU). The total cAMP formation was assessed in the time–response curve by calculating the area under the curve (AUC).

[1] = system: receptor homodimer (MC4R-WT, CB1R, Chim 1-7, H158R); experiment: NanoBRET receptor homodimerization (BRET ratio, ΔBRET); settings: for Relative Dimerization Compared to WT: NanoBRET data from Figure 2 (ΔBRET = chimera minus MC4R-WT), HEK293, no agonist, three independent experiments in triplicate; for nanoBRET rations, mean: difference to WT+WT, mean of the replicates; for homodimerization compared to MC4R-WT: NanoBRET, HEK293, n = 3 in triplicate
Procedure: Cells were maintained in minimal essential medium (MEM, Gibco, Waltham, MA, USA) supplemented with 5% fetal bovine serum (FBS, Gibco, Waltham, MA, USA) and NEAA incubated at 37 °C in humidified air containing 5% CO2. For the BRET assays, 4 × 10^5 HEK293 cells per well were seeded in 6-well plates for transfection.
For BRET assays, HEK293 cells were transfected 4–6 h after seeding. Transfection was performed using 8 µL FuGene HD (Promega, Mannheim, Germany) and 1.4 µg DNA in Opti-MEM (Gibco, Waltham, MA, USA). […] In addition, 200 ng Carrier DNA (pGEM3Z) was added.
For graphical depiction the delta BRET was calculated (3) ΔBRET=BRETRatiochimeric receptor−BRETRatioWT−MC4R

[2] = system: receptor-receptor interaction (WT, Chim 7, H158R, CB1R); experiment: Donor saturation assay (DSA, NanoBRET), specificity of receptor-receptor interaction; type: cell-based, human; settings: for Bmax: DSA; for specificity of homodimer interaction: donor saturation assay, HEK293
Procedure: The interaction between MC4R-WT, CB1R, and the chimeric receptors was determined using NanoBRET™ (Promega, Mannheim, Germany). The receptors were either C-terminally tagged with HaloTag (HT) as an energy acceptor or C-terminally fused with NanoLuc (NL) as an energy donor. Then, 20 h after transfection, cells were detached from the wells and centrifuged at 130× g for 5 min and the pellet was resuspended in Opti-MEM (Gibco) without phenol red, supplemented with 4% FBS (Gibco). […] The cells were then reseeded into white opaque 96-well plates (Corning, Costar) and incubated for 4–6 h at 37° and 5% CO2. […] The BRET Ratio was calculated by dividing acceptor emission by donor emission. In order to correct for background bleedthrough, the background ratio (no acceptor DMSO control) was subtracted, and the unit was changed into miliBRET (mBU).
Supplements S1: Donor Saturation Assays (DSA) investigating the specificity of receptor-receptor interaction of WT, Chim7 and H158R.
Figure S1: Donor Saturation Assays (DSA) investigating the specificity of receptor-receptor interaction of WT, Chim7 and H158R. HEK293 cells were transfected with increasing amounts of acceptor while the amount of donor was held constant. A receptor interaction is called specific, if a saturation level (Bmax) can be achieved. This is represented by a […]
hyperbolic curve. […] WT-MC4R […]
served as positive control, CB1R was included as negative control as it is known not to […]
receptor interaction, represented by the black hyperbolic curve. The negative controls depict flat behavior. (B) Homodimerization of Chim 7 is depicted next to WT-MC4R homodimer formation. Interaction of Chim7 NL with CB1R HT served as negative control.
(C) Homodimerization of H158R is depicted next to positive and negative control. […] Data […]
represent three independent experiments each performed in triplicates. Values represent

MC4R-H158R = biological target: T1, MC4R-H158R (Homo sapiens, UniProt P32245, H158R); experiment: NFAT luciferase reporter gene assay (PLC activation, Gq/11 signaling), H158R; type: cell-based
T1 construct: expressed in transfected cells; host or cells: HEK293
T1 sequence (P32245 whole entry H158R): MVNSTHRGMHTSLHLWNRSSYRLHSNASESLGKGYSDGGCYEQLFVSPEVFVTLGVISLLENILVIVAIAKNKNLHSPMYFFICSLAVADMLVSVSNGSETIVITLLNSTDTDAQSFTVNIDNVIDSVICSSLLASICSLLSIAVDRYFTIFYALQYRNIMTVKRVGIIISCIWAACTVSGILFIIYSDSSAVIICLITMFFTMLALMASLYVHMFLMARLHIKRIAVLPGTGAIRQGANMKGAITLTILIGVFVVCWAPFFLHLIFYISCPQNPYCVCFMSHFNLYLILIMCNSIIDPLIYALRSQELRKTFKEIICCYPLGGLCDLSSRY

MC4R-WT = MC4R-WT (Homo sapiens, UniProt P32245); experiment: NFAT luciferase reporter gene assay (PLC activation, Gq/11 signaling), MC4R-WT; settings: MC4R-WT + PTX (50 ng/mL, 18 h before stimulation), HEK293; mean ± SEM, two to nine experiments
Chain of MC4R-WT (P32245 whole entry): as the sequence (P32245 whole entry H158R) above, with R158H counted along it
Procedure: Cells were maintained in minimal essential medium (MEM, Gibco, Waltham, MA, USA) supplemented with 5% fetal bovine serum (FBS, Gibco, Waltham, MA, USA) and NEAA incubated at 37 °C in humidified air containing 5% CO2. […] For the NFAT luciferase-based reporter gene assay, 1.5 × 10^4 cells per well were seeded in poly-L-lysine-coated (Gibco, Waltham, MA, USA) 96-well translucent plates (Falcon, Kaiserslautern, Germany) and incubated for 24 h.
For reporter gene assays, HEK293 cells were transfected 24 h after seeding with 45 ng plasmid DNA and 0.45 µL Metafectene (Biontex, Munich, Germany), according to the manufacturer’s protocol. […]
In order to determine phospholipase C (PLC) activation, luciferase-based reporter gene assays were conducted. […] Measurements were conducted by injecting 40 µL firefly luciferase substrate (Promega, Mannheim, Germany), and luminescence was determined with a plate reader (Mithras LB940). Signaling bias was analyzed using the formula described by Kenakin [27]:(4) Δlog(Emax/EC50)=log(Emax, A/EC50,A)−log(Emax, B/EC50, B) with A referring to the respective chimeric receptor and B being the reference (MC4R-WT). Emax was determined from concentration–response curves and depicts the maximal response (efficacy); EC50 describes the potency. Bias was further calculated, creating the antilog. […]

[3] = system: MC4R/CB1R chimeric receptors; settings: COS-7 cells; cited from earlier work
Procedure: Results were based on cAMP accumulation assays in COS-7 cells. […] Experiments were performed using GloSensor^TM assay enabling dynamic live cell measurement of cAMP increase. In order to compare the results of this study with results previously achieved in COS-7 cells, we used the same ...

[4] = biological target: MC4R/CB1R chimeric receptor Chim 5 (substitution of ICL2) (UniProt P32245); experiment: FRET or BRET; NanoBRET in living HEK293 cells co-transfected with a NanoLuc fusion (donor; written as binder) and a HaloTag fusion (acceptor, ligand 618; written as target), NL/HT DNA ratio 1:5; BRET ratio in mBU after subtraction of the no-acceptor control; delta BRET = chimera minus MC4R-WT homodimer

CC(C)NCC(O)c1ccc(O)c(O)c1 (centres unmarked) [Isop, isoproterenol]
cAMP AUC (HEK293 cells; cells transfected with Chim5, 1 µM isoproterenol, Assay 1): 1461897
cAMP AUC (HEK293 cells; cells transfected with Chim5, 1 µM isoproterenol, Assay 2): 430167
cAMP AUC (HEK293 cells; cells transfected with Chim5, 1 µM isoproterenol, Assay 3): 324823
cAMP AUC (HEK293 cells; cells transfected with Chim5, 1 µM isoproterenol, Assay 4): 256187
cAMP AUC (HEK293 cells; cells transfected with Chim6, 1 µM isoproterenol, Assay 1): 1327867
cAMP AUC (HEK293 cells; cells transfected with Chim6, 1 µM isoproterenol, Assay 2): 379487
cAMP AUC (HEK293 cells; cells transfected with Chim6, 1 µM isoproterenol, Assay 3): 230900
cAMP AUC (HEK293 cells; cells transfected with Chim6, 1 µM isoproterenol, Assay 4): 310727
cAMP AUC (HEK293 cells; cells transfected with Chim7, 1 µM isoproterenol, Assay 1): 786920
cAMP AUC (HEK293 cells; cells transfected with Chim7, 1 µM isoproterenol, Assay 2): 473207
cAMP AUC (HEK293 cells; cells transfected with Chim7, 1 µM isoproterenol, Assay 3): 236040
cAMP AUC (HEK293 cells; cells transfected with Chim7, 1 µM isoproterenol, Assay 4): 192750
cAMP AUC (HEK293 cells; cells transfected with WT, 1 µM isoproterenol, Assay 1): 803127
cAMP AUC (HEK293 cells; cells transfected with WT, 1 µM isoproterenol, Assay 2): 589360
cAMP AUC (HEK293 cells; cells transfected with WT, 1 µM isoproterenol, Assay 3): 380950
cAMP AUC (HEK293 cells; cells transfected with WT, 1 µM isoproterenol, Assay 4): 376050

MC4R-WT: wild-type melanocortin 4 receptor
Relative Dimerization Compared to WT [1]: 0
Bmax ([2]; HEK293, run 20210820): 129.2
Bmax ([2]; HEK293, run 20210901): 118.3
Bmax ([2]; HEK293, run 20210903): 124.8
Bmax ([2]; HEK293, run 20210929): 127.1
Bmax ([2]; HEK293, run 20211101): 143.5
Bmax ([2]; HEK293, run 20211107): 109
Bmax ([2]; HEK293, run 20211130): 120.4
Bmax ([2]; HEK293, run 20211202): 130.7
Bmax ([2]; HEK293, run 20211217): 122.3
specificity of homodimer interaction [2]: specific interaction

MC4R-WT+MC4R-WT
nanoBRET rations, mean [1]: 0.000667

CC(=O)N[C@@H](CCCNC(=N)N)C(=O)N[C@H]1CSSC[C@@H](C(N)=O)NC(=O)[C@H](Cc2c[nH]c3ccccc23)NC(=O)[C@H](CCCNC(=N)N)NC(=O)[C@@H](Cc2ccccc2)NC(=O)[C@H](Cc2c[nH]cn2)NC(=O)[C@@H](C)NC1=O [Setmelanotide]
Emax at 1 µM (MC4R-H158R; HEK293, H158R, 6 h at 37 °C, mean ± SEM, n = 4): 135.93 ± 17.16 Fold over MC4R-WT Stimulated 1 µM
Emax (MC4R-H158R; bias Setmelanotide calculation): 135.93%
Emax at 1 µM (MC4R-WT): 70.26 ± 9.13 Fold over MC4R-WT Stimulated 1 µM

4-Norleucine, 7-D-phenylalanine-alpha-melanocyte-stimulating hormone [NDP-alpha-MSH]
stimulated cAMP levels of chimeric receptors compared to MC4R-WT [3]: higher

MC4R/CB1R chimeric receptor Chim 5 (substitution of ICL2) (from UniProt P32245 1-332)
Relative Dimerization Compared to WT (delta BRET) [4]: -41.8

H158R: MC4R gain-of-function mutation located in ICL2 [Chim H158R]
Relative Dimerization Compared to WT [1]: −28.94
homodimerization compared to MC4R-WT [1]: significantly impaired dimerization capacities
nanoBRET rations, mean [1]: -28.94
Bmax ([2]; HEK293, run 20211107): 109.9
Bmax ([2]; HEK293, run 20211130): 119.8
Bmax ([2]; HEK293, run 20211202): 137.4
specificity of homodimer interaction [2]: shows specific homodimer formation; also recorded: specific interaction

B1: CB1R: cannabinoid receptor type 1, negative control (protein)
chain: MKSILDGLADTTFRTITTDLLYVGSNDIQYEDIKGDMASKLGYFPQKFPLTSFRGSPFQEKMTAGDNPQLVPADQVNITEFYNKSLSSFKENEENIQCGENFMDIECFMVLNPSQQLAIAVLSLTLGTFTVLENLLVLCVILHSRSLRCRPSYHFIGSLAVADLLGSVIFVYSFIDFHVFHRKDSRNVFLFKLGGVTASFTASVGSLFLTAIDRYISIHRPLAYKRIVTRPKAVVAFCLMWTIAIVIAVLPLLGWNCEKLQSVCSDIFPHIDETYLMFWIGVTSVLLLFIVYAYMYILWKAHSHAVRMIQRGTQKSIIIHTSEDGKVQVTRPDQARMDIRLAKTLVLILVVLIICWGPLLAIMVYDVFGKMNKLIKTVFAFCSMLCLLNSTVNPIIYALRSKDLRHAFRSMFPSCEGTAQPLDNSMGDSDCLHKHANNAASVHRAAESCIKSTVKIAKVTMSVSTDTSAEAL
modifications: left off: NanoLuc, C-terminal, kept | HaloTag, C-terminal, kept
homodimerization compared to MC4R-WT [1]: decreased
